Legend:
[1] = tested on: RARA and RXRA protein levels in NB4 cells; test: Whole-proteome mass spectrometry of NB4 cells; format: cell-based, human; conditions: ATRA 24 h, n = 3 per condition
Experimental: Cells were lysed by addition of lysis buffer (8 M Urea, 50 mM NaCl, 50 mM 4-(2-hydroxyethyl)-1-piperazineethanesulfonic acid (EPPS) pH 8.5, Protease and Phosphatase inhibitors) and homogenization by bead beating (BioSpec) for three repeats of 30 seconds at 2400. Bradford assay was used to determine the final protein concentration in the clarified cell lysate. […] Desalted peptides were dried in a vacuum-centrifuged and reconstituted in 0.1% formic acid for LC-MS analysis.
Data were collected using a TimsTOF Pro2 (Bruker Daltonics, Bremen, Germany) coupled to a nanoElute LC pump (Bruker Daltonics, Bremen, Germany) via a CaptiveSpray nano-electrospray source.
The ddaPASEF parameters included: 100% duty cycle using accumulation and ramp times of 50 ms each, 1 TIMS-MS scan and 10 PASEF ramps per acquisition cycle. […] The quadrupole isolation width was set to 2 m/z for m/z <700 and 3 m/z for m/z >800, with the m/z between 700–800 m/z being interpolated linearly. […] To perform diaPASEF, the precursor distribution in the DDA m/z-ion mobility plane was used to design an acquisition scheme for DIA data collection which included two windows in each 50 ms diaPASEF scan. […]

RARA and PML-RARA = test: Western blotting of RARA / PML-RARA degradation in NB4 cells; format: cell-based, human
Experimental: Membranes were blocked for 30 minutes to 1 hour at room temperature in Odyssey Blocking Buffer/PBS (LI-COR Biosciences), and incubated with primary antibodies at 4 °C overnight. Stained membranes were washed three times in Tris-buffered saline with Tween 20 (TBS-T) and incubated for 1 hour at room temperature with secondary IRDye-conjugated antibodies (LI-COR Biosciences). Membranes were washed three times in TBS-T before imaging (Odyssey Imaging System, LI-COR Biosciences).

NB4 cells = test: NB4 viability (relative cell counts); format: cell-based, human; conditions: shUBR5 vs shCTRL, n = 4
Experimental: (D) Western blotting of NB4 cells transduced with shRNAs against luciferase (shCTRL) or UBR5 treated with or without ATRA. (E) Viability by relative cell counts of NB4 cells transduced with control or UBR5 shRNAs (two shRNAs per condition, combined) following treatment with 1 μM ATRA for 24 h. (n = 4, two-sided t test). […] (NS, not significant, *p < 0.05, **p < 0.005, ***p < 0.0005, ****p < 0.00005, error bars represent SEM.)
All flow cytometry-based assays (degradation and viability assays) were run in triplicate (n=3) unless otherwise specified where n represents a distinct flow cytometric specimen (a well or tube containing ~100,000 cells). P-values were calculated using GraphPad Prism two-sided t-test and are centered around the mean and error bars represent the SEM unless otherwise specified.
K. NB4 cell viability following
transduction of shRNAs againstluciferase or UBR5 and ATRA treatment for 3 days.Data from two shRNAs are combined.(n=4, two sided t-test)NS,not significant, *p < 0.05, **p <0.005, ***p<

UBR5-RARA = test: In vitro FLAG-UBR5 pull-down of His-tagged RARA; format: binding, human; conditions: 50 μM ligand, anti-His western, 25 mM HEPES pH 7.4, 125 mM NaCl, 0.05% TWEEN-20
Experimental: 12 μL of FLAG M2 slurry were equilibrated with binding buffer (25 mM HEPES pH 7.4, 125 mM NaCl, 0.05% TWEEN-20). The resin was pelleted and excess buffer removed. 60 μL of fresh binding buffer was re-added, followed by addition of 15 pmol (2.5 μL ofa6 μM solution) of purified FLAG-UBR5 protein and incubated on a rotating wheel at 4°C for 60–90 minutes. The resin was pelleted, excess buffer removed, and 150 μL fresh binding buffer (supplemented with 50 μM ligand of interest or DMSO) added, followed by 150 pmol protein (binding partner protein of interest) and incubated for another 60 minutes. The resin was pelleted, excess buffer removed and washed with 400 μL of binding buffer (supplemented with ligand of interest or DMSO), and this process was repeated three times. The resin was pelleted, excess buffer removed and 45 μL of binding buffer supplemented with 1 mg/mL 3xFLAG peptide was added to elute proteins over 30 minutes on a rotating wheel at room temperature. The resin was pelleted, and 40 μL of the supernatant was collected and mixed with 12 μL of 5xSDS gel loading buffer. 6 μL of these samples were applied to SDS-PAGE on a 4–20% gradient gel (Biorad). The gel was transferred to a nitrocellulose membrane using the Trans-Blot Turbo Transfer System (Biorad). Following blocking with 5% skim milk solution in TBST, primary antibodies targeting the NR proteins were added in TBST and incubated overnight at 4 °C. The following day, membranes were washed thrice with TBST buffer and incubated for 45 minutes with fluorescent secondary antibody (Invitrogen A11357), followed by three more washes with TBST. Imaging was performed on a Licor Odyssey system, scanned at 800 nm.

UBR5-RARA/RXRA [2] = test: In vitro FLAG-UBR5 pull-down of His-tagged RARA/RXRA heterodimer; format: binding, human; conditions: 50 μM ATRA, mutant proteins
Experimental: The resin was pelleted and excess buffer removed. 60 μL of fresh binding buffer was re-added, followed by addition of 15 pmol (2.5 μL ofa6 μM solution) of purified FLAG-UBR5 protein and incubated on a rotating wheel at 4°C for 60–90 minutes. The resin was pelleted, excess buffer removed, and 150 μL fresh binding buffer (supplemented with 50 μM ligand of interest or DMSO) added, followed by 150 pmol protein (binding partner protein of interest) and incubated for another 60 minutes. The resin was pelleted, excess buffer removed and washed with 400 μL of binding buffer (supplemented with ligand of interest or DMSO), and this process was repeated three times. The resin was pelleted, excess buffer removed and 45 μL of binding buffer supplemented with 1 mg/mL 3xFLAG peptide was added to elute proteins over 30 minutes on a rotating wheel at room temperature. The resin was pelleted, and 40 μL of the supernatant was collected and mixed with 12 μL of 5xSDS gel loading buffer. 6 μL of these samples were applied to SDS-PAGE on a 4–20% gradient gel (Biorad). The gel was transferred to a nitrocellulose membrane using the Trans-Blot Turbo Transfer System (Biorad). Following blocking with 5% skim milk solution in TBST, primary antibodies targeting the NR proteins were added in TBST and incubated overnight at 4 °C. […]

RARA reporter = RARA reporter degradation (GFP/mCherry); format: cell-based, human
Experimental: (§1) Reporter cell lines were seeded in triplicate at a density of 1 million cells/ml in 100 μl per well in a 96 well plate and measured once. Ligand was added by Digital Dispenser (Tecan), and incubated at 37°C for the appropriate time before reading by flow cytometry. Cells were analyzed for GFP vs mCherry expression. GFP expression was normalized to mCherry signal and ligand treatments were compared to DMSO controls.

PML-RARA-GFP reporter = PML-RARA-GFP reporter degradation; format: cell-based, human; conditions: equivalent single-residue glutamate substitutions
Experimental: as §1

[3] = tested on: RARA complexes (NCOR, NCOA, UBR5); test: RARA-GFP immunoprecipitation (IP-MS and IP-western); format: cell-based, human
Experimental: To examine the temporal dynamics of this competition in cells, we performed sequential RARA immunoprecipitation/mass spectrometry (IP/MS) in the presence of MG132 at 0, 4, and 16 h following ATRA treatment.
Reporter cells (up to 100 million) were treated with ligand (ATRA, dexamethasone) and allowed to incubate for different time points. […] Lysates were incubated with GFP-Trap Magnetic Agarose beads (ChromoTek, GTMA-20) overnight at 4°C on a rotator. Beads were magnetically removed and washed three times with Pierce IP Lysis Buffer with ligand added before boiling in 1x NuPAGE LDS Sample Buffer (ThermoFischer, NP0007).
After the washing step, samples were eluted using Glycine-HCl buffer (0.2 M, pH 2.4) and rebuffered to pH 8.0. The IP eluates were reduced with 10 mM TCEP for 30 min at room temperature, and then alkylated with 15 mM iodoacetamide for 45 min at room temperature in the dark. Alkylation was quenched by the addition of 10 mM DTT. Proteins were isolated by methanol-chloroform precipitation. The protein pellets were dried and then resuspended in 50 μL 200 mM EPPS pH 8.0. The resuspended protein samples were digested with 2 μg LysC overnight at room temperature followed by the addition of 0.5 μg Trypsin for 6 h at 37°C. Protein digests were dried, resuspended in 100 μL 1% formic acid, and desalted using 10-layer C18 stage-tips before being analyzed by LC-MS.

[4] = tested on: RARA and UBR5 on chromatin in NB4 cells; test: ChIP-seq of RARA and UBR5 in NB4 cells; format: cell-based, human; conditions: NB4, ATRA 8 and 24 h vs DMSO
Experimental: Cell lines were expanded (up to 50 million), treated with ligand, and incubated at 37 °C. Cells were pelleted by centrifugation for 5 minutes, washed twice with cold PBS, and resuspended, in 5 ml of room temperature PBS. 20 μl of 0.5M Disuccinimidyl glutarate (DSG) (ThermoFisher), was added and incubated for 30 minutes at room temperature. Cells were pelleted by centrifugation and resuspended in 8.325 ml of PBS and 8.325 ml of 2% formaldehyde and incubated for 30 minutes at room temperature. Cross-linking was quenched by the addition of 1665 μl of 1 M Tris-HCl pH 8.0 and 832.5 μl of 2.5 M glycine. Cells were pelleted and washed twice with PBS. Cross-linked cells were resuspended in LB1 Buffer (50mM HEPES-KOH, pH7.5, 140mM NaCl, 1mM EDTA, 10% Glycerol, 0.5% NP-40, 0.25% Triton X-100 in distilled water) and rotated for 10 minutes at 4C. Cells were pelleted and resuspended in LB2 (10mM Tris-HCl, pH 8.0, 200mM NaCl, 1mM EDTA, 0.5mM EGTA in distilled water) and rotated for 10 minutes at 4C. Cells were pelleted and resuspended in LB3 (10mM Tris-HCL, pH 8.0, 100mM NaCl, 1mM EDTA, 0.5mM EGTA, 0.1% Na-deoxycholate, 0.5% Na-Lauroylsarcosine, 1% Triton X-100, in distilled water) sonicated (Covaris, E220). […] Fragment length and concentrations were assessed using TapeStation (Agilent) and Qubit (ThermoFisher), and libraries were sequenced on an Illumina NextSeq 550 sequencer. […]

[5] = tested on: ATRA-induced gene expression in NB4 cells; test: RNA sequencing of NB4 cells; format: cell-based, human; conditions: NB4, ATRA 0, 8, 24, 48 h
Experimental: Cell lines were expanded, treated with ligand, and incubated at 37C. Cells were pelleted by centrifugation for 5 minutes, washed with cold PBS, and RNA was isolated by RNeasy kit (Qiagen) per manufacturer’s instructions. RNA was sent to Novogene for library preparation and sequencing, or prepared for sequencing (NEBNext, New England Biolabs) and sequenced on an Illumina NextSeq 550 sequencer.
Paired-end reads were aligned to the hg38.p13[81],[82] reference genome with the STAR[83] (v5.2.7b) aligner as part of the RSEM[99] command line tool. Gene transcript abundance was further quantified from aligned fragments using RSEM to generate a gene-by-sample matrix of expected counts. Differential expression was tested, as with the ChIP-seq data, using the DESeq[88],[93]2 and ashr[94] pipeline, this time calculating sample-specific scale factor offset using the method of median-ratio as implemented in the R package EBSeq[100] (v1.36.0). For plotting in heatmaps, genes were selected based on ChIP-seq peak annotation and subset.

UBR5-RARA/RXRA [6] = test: RARE dsDNA incorporation into UBR5-RARA/RXRA complex; format: binding, human
Experimental: A.Western blot (anti-His)showingin vitroFLAG-UBR5 pulldownofpurified His-tagged RARA/RXRA heterodimer, showing thata fluorescein-labelled 24-merdsDNAcontaining a DR5 Retinoic Acid
Immediately before preparing samples for SDS-PAGE, fluorescence
counts were measured at 488 nm to assessdsDNAincorporation. Fluorescence counts were normalized to the –dsDNA, DMSO condition as abaseline.

PML-RARA = tested on: PML-RARA; parameters: method as in PMID 10611294, PMID 20378816; conditions: ATRA targets RARA, ATO targets PML, ref [6],[11]; cited from earlier work

For `CC1=C(/C=C/C(C)=C/C=C/C(C)=C/C(=O)O)C(C)(C)CCC1` [ATRA, all-trans-retinoic acid], the “protein levels of RARA and RXRA” value [1] was “significantly and selectively decreased”, the “RARA and PML-RARA degradation, proteasome / neddylation dependence” value (RARA and PML-RARA; 10 µM ATRA with MG132 or MLN4924) was “dependent on the proteasome, but not neddylation” and the “effect of UBR5 knockdown on PML-RARA degradation” value (RARA and PML-RARA; UBR5 shRNA) was “prevented ATRA-induced degradation of PML-RARA in NB4 cells”. The “effect of UBR5 knockdown on RARA degradation” value (RARA and PML-RARA; UBR5 shRNA vs control shRNA) was “rescued ATRA-induced RARA degradation”, the “ATRA sensitivity upon UBR5 knockdown” value (NB4 cells) was “decreased ATRA sensitivity in NB4 cells” and the “binding of RARA to UBR5” value (UBR5-RARA) was “robustly induced binding of RARA to UBR5”. The “agonist-induced binding of RARA V240E / RXRA V280E to UBR5” value (UBR5-RARA/RXRA [2]) was “abolished agonist-induced binding to UBR5 in vitro”, the “requirement of UBR5 HECT domain for RARA reporter degradation” value (RARA reporter; HEK293, CRISPR-edited UBR5 deficient of HECT domain, n = 3) was “necessary for ATRA-induced RARA reporter degradation” and the “degradation of RARA reporter, I254 / I258 glutamate mutants” value (RARA reporter; I254 and I258 mutations, n = 3) was “significantly reduced ATRA-induced degradation”. The “RARA LBD reporter degradation” value (RARA reporter; RARA LBD only, ATRA) was “still mediated ATRA-induced reporter degradation”, the “degradation of RARA reporter, V240 glutamate mutant” value (RARA reporter; V240 single mutation, n = 3) was “abolished ATRA-induced degradation” and the “degradation of PML-RARA-GFP reporter, cleft mutants” value (PML-RARA-GFP reporter) was “blocked ATRA-induced degradation of the PML-RARA-GFP reporter in cells”. The “RARA-associated NCOA1 and UBR5 by IP-western” value ([3]; U937 RARA-GFP, 10 µM ATRA / MG132, 0-24 h) was “initial NCOA1 binding to RARA after 4 h of ATRA treatment, diminishing NCOA1 binding from 4 to 16 h, and increased binding of UBR5 at 16 and 24 h”, the “RARA-associated UBR5 by IP/MS” value ([3]; with MG132, 0, 4, 16 h ATRA) was “enrichment of UBR5 peptides at 16 h post ATRA treatment” and the “RARA ChIP-seq peaks” value [4] was “lost following ATRA treatment”. For the same compound, the “UBR5 ChIP-seq binding at RARA loci” value [4] was “binding was strengthened following ATRA treatment”, the “effect of UBR5 knockdown on ATRA-induced transcription” value [5] was “strongly decreased transcriptional activation” and the “DNA incorporation into UBR5-RARA/RXRA complex” value (UBR5-RARA/RXRA [6]) was “DNA was readily incorporated into a UBR5-RARA/RXRA complex”. The “PML-RARA degradation (literature)” value (PML-RARA) was “PML-RARA is degraded therapeutically”.
